Data taken from patent publication US5922554A, “Inhibition of cellular uptake of cholesterol” (The Regents of the University of California, priority 1996, dated 1999).

Tests used:
hepatocytes = details: 30 μM; Lange 1994; cited from earlier work
[1] = system: human hepatoblastoma (HepG2) cells; details: Lange 1994; cited from earlier work
fibroblast monolayers = assay: Influx/uptake of ^3 H-FC (free cholesterol) from labeled LDL (or plasma, HDL) into normal fibroblast monolayers; format: cell-based, human
fibroblast ACAT = details: 30 μM; Goldstein et al. 1978; cited from earlier work

## CC(=O)[C@H]1CC[C@H]2[C@@H]3CCC4=CC(=O)CC[C@]4(C)[C@H]3CC[C@]12C [Progesterone]
hepatocytes
  inhibition of cholesterol transport in hepatocytes: inhibit
[1]
  transfer of FC from plasma membrane to cell interior: promoted the transfer of FC
Fibroblast monolayers
  LDL-FC influx (discussion, words): without effect
  inhibition of LDL-FC pathway (summary, words): not inhibited
Fibroblast monolayers; LDL-FC 60.2 μg ml^-1, 60 min, 37° C., 30 min preequilibration with inhibitor at: Na-azide 1 mM, NH4-vanadate 1 mM, NEM 2 mM, KNO3 50 mM, progesterone 30 μM, forskolin 30 μM, IBMX 100 μM, chloroquine 20 μM
  FC Influx: 1.28 ± 0.06 µg
Fibroblast monolayers; Table 3 conditions
  effect on LDL FC uptake: no effect
Fibroblast monolayers; same concentrations and conditions as Table 3 FC influx, 60 min
  FC Influx, % (PBS only = 100.0): 97.3%
Fibroblast ACAT
  inhibition of fibroblast ACAT activity: maximally inhibit
